# Like-named read-outs stand apart in the source and are kept apart here.
# How the values were obtained:
# [1] = tested on: HSJD-RBT-2 retinoblastoma cells; test: Antiproliferative activity (MTS), HSJD-RBT-2; type: cell-based; details: Homo sapiens
# [2] = tested on: HSJD-RBT-7 retinoblastoma cells; test: cells; type: cell-based; details: Homo sapiens
# [3] = tested on: HSJD-NB-005 neuroblastoma; test: Antitumor activity in neuroblastoma PDX HSJD-NB-005; type: in vivo, mouse; details: single treatment (FIG. 24D,F)
# Protocol: PDX of neuroblastoma (pediatric solid tumor) were implanted subcutaneously into athymic nude mice. Tumor model was HSJD-NB-005. Upon engraftment (tumor volumes ranging 100-500 mm^3), treatments were started. The activity of topotecan vs. irinotecan in combination with VCN-01 was evaluated. The following groups of mice were included in the study, with an n of 6 tumors per group: • Group 1: no treatment • Group 2: topotecan i.p. at 0.6 mg/kg, Day 1-5 • Group 3: irinotecan i.p. at 10 mg/kg, Day 1-5 • Group 4: VCN-01 i.t at 3E9 vp/tumor, Day 1 • Group 5: VCN-01 i.t at 3E9 vp/tumor, Day 1 (morning)+topotecan i.p. at 0.6 mg/kg, Day 1-5 • Group 6: VCN-01 i.t at 3E9 vp/tumor, Day 1 (morning)+irinotecan i.p. at 10 mg/kg, Day 1-5
# Antitumor activity in extracranial pediatric solid tumors. 5-10 mm^3 fresh fragments of Ewing sarcoma or neuroblastoma PDX were implanted in both flanks of mice. Upon s.c. engraftment (tumor volume 150-200 mm^3), mice received topotecan (0.6 mg/kg, i.p., days 1-5), VCN-01 (3×10^9 vp in 20 µL vehicle, intratumoral, day 1), or the combination. In two additional groups, an alternative topoisomerase 1 inhibitor, irinotecan (10 mg/kg, i.p., on days 1-5) we used in place of topotecan. Upon completion of treatments, tumor volumes were followed until endpoint (1500 mm^3), or until day 80.
# [4] = Accumulation of topotecan in VCN-01-infected retinoblastoma; type: in vivo, mouse
# Description: Accumulation of topotecan in VCN-01-infected retinoblastoma. The Animal Experimental Ethics Committee at the University of Barcelona (animal protocol number 482/18) approved animal experimentation. Retinoblastoma cells in the eyes of athymic nude mice (Envigo, Barcelona, Spain), as previously described (Pascual-Pasto et al., 2016). After 14 days, VCN-01 (3×10^9 vp/eye) was inoculated. After another 14 days, s.c. osmotic pumps loaded with topotecan were implanted to achieve constant topotecan in plasma, as described previously (Pascual-Pasto et al., “Increased delivery of chemotherapy to the vitreous by inhibition of the blood-retinal barrier,” J Control Release 2017; 264:34-44), and collected tumor samples for analysis of topotecan.
# Animal experiments were carried out following institutional and European guidelines (EU Directive 2010/63/EU) and the ARRIVE guidelines ([…]). Retinoblastoma cells (2×10^5) were inoculated into the posterior segment of the eye of six week old athymic nude mice using a dull 33G needle, as previously described (Giani et al., 1994). […] Samples were analyzed by high performance liquid chromatography (HLPC) as described previously ([…]).
# [5] = tested on: s.c. retinoblastomas (Y79 and RBT-7); test: VCN-01 genomes in s.c. xenografts (Y79 and RBT-7); type: in vivo, mouse
# Protocol: To quantify genome copies of VCN-01 in cell cultures or mouse tissues, total DNA was extracted and real time quantitative polymerase chain reactions (RT-qPCR) was performed as described (Cascallo et al., “Systemic toxicity-efficacy profile of ICOVIR-5, a potent and selective oncolytic adenovirus based on the pRB pathway,” Mol Ther 2007; 15(9):1607-15).
# Intratumoral infection of VCN-01. S.c. tumors were established in athymic nude mice. Upon xenograft engraftment, mice received one intratumoral injection of VCN-01, alone or combined with one cycle of topotecan, […], or hydroxyurea. At 5 and 15 days after VCN-01 inoculation, genome copies of VCN-01 were quantified in the tumors and immunostained for E1A and E2F-1.
# To establish s.c. tumors, 10^6 retinoblastoma cells suspended in 25 µL matrigel (Corning, Glendale, AZ, USA) were injected in athymic nude mice. Upon xenograft engraftment (tumor volumes ranging 100-200 mm^3), treatments were started. Mice received VCN-01 (3×10^9 vp in 20 µL vehicle, single intratumoral injection at day 1), alone or combined with one cycle of topotecan (0.6 mg/kg, intraperitoneal -i.p.-, daily at days 1-5), […] (40 mg/kg, i.p, one single dose at day 1), or hydroxyurea (200 mg/kg, i.p., daily at days 1-5). […] In tumor homogenates, genome copies of VCN-01 were quantified. […]
# [6] = non-tumor bearing pigs, cited from earlier work
# [7] = read-out: IC50, Topotecan single agent
# [8] = read-out: IC50, Topotecan with VCN-01 (10 MOI)
smiles,measurement,setting,value
"CC[C@@]1(O)C(=O)OCc2c1cc1n(c2=O)Cc2cc3c(CN(C)C)c(O)ccc3nc2-1 [Topotecan, topotecan]",IC50,[1]; [7],7.38 nM
same,IC50,[1]; [8],50.7 nM
same,IC50,[2]; [7],15.1 nM
same,IC50,[2]; [8],118 nM
same,response of xenograft to single treatment,[3],highly resistant
same,biodistribution of topotecan in intraocular tumors,[4]; concomitant treatment with VCN-01 (FIG. 21),did not change
same,concentration at 6 h,"[4]; mouse, in vivo, sc, 25 ug/h, osmotic pump, 25 μg/h, athymic nude mice, read-out: topotecan plasma level at steady state",~100 ng/mL
same,"counts of viral genomes, 5 days",[5]; 5 days after intratumoral VCN-01 (FIG. 18G),higher counts of viral genomes
same,"counts of viral genomes, 15 days",[5]; 15 days after intratumoral VCN-01 (FIG. 19B),Different counts of viral genomes were not observed
same,"systemic exposure, OAC versus IV",[6],systemic exposure was comparable between the two routes
same,"topotecan concentration in retina, OAC versus IV","[6]; retina, after OAC than after IV",146 times higher
same,"topotecan concentration in vitreous, OAC versus IV","[6]; vitreous, after OAC than after IV",243 times higher
